As usually defined, the Ki is the equilibrium dissociation constant of an inhibitor or competing ligand from its target.

Results on 20 compounds are retold here after patent publication US10633379B2, “Bromodomain inhibitors” (AbbVie Inc., priority 2016, dated 2020).

The target of assay [1] is BRD4 (BDI_K57-E168) (Homo sapiens (Human), UniProt O60885). In words: TR-FRET bromodomain binding assay, BRD4 BDI. The following applies: mean Ki, calculated from IC50, probe Kd and probe concentration. On the procedure: (§1) A time-resolved fluorescence resonance energy transfer (TR-FRET) assay was used to determine the affinities of compounds of the Examples listed in Table 1 for each bromodomain of BRD4. His-tagged first (BDI: amino acids K57-E168) and second (BDII: amino acids E352-M457) bromodomains of BRD4 were expressed and purified. An Alexa647-labeled BET-inhibitor was used as the fluorescent probe in the assay.
(§2) Compound dilution series were prepared in DMSO via an approximately 3-fold serial dilution. Compound dilutions were added directly into white, low-volume assay plates (Perkin Elmer Proxiplate 384 Plus#6008280) using a Labcyte Echo in conjunction with Labcyte Access and Thermo Multidrop CombinL robotics. Compounds were then suspended in eight microliters (μL) of assay buffer (20 mM Sodium Phosphate, pH 6.0, 50 mM NaCl, 1 mM Ethylenediaminetetraacetic acid disodium salt dihydrate, 0.01% Triton X-100, 1 mM DL-Dithiothreitol) containing His-tagged bromodomain, Europium-conjugated anti-His antibody (Invitrogen PV5596) and Alexa-647-conjugated probe.
(§3) The final concentration of 1× assay mixture contained 2% DMSO, 12 nM His tagged BRD4 (BDI_K57-E168) and 100 nM probe or 4 nM His tagged BRD4 (BDII_E352-M457) and 30 nM probe, and 1 nM Europium-conjugated anti-His-tag antibody, and compound concentrations in the range of: 49.02 μM-0.61 nM or 0.98 μM-0.15 nM.
(§4) After a one-hour equilibration at room temperature, TR-FRET ratios were determined using an Envision multilabel plate reader (Ex 340, Em 495/520).
(§5) TR-FRET data were normalized to the means of 24 no-compound controls (“high”) and 8 controls containing 1 μM un-labeled probe (“low”). Percent inhibition was plotted as a function of compound concentration and the data were fit with the 4 parameter logistic equation to obtain IC50s. Inhibition constants (Ki) were calculated from the IC50s, probe Kd and probe concentration.

The target in assay [2] is BRD4 (BDII_E352-M457) (Homo sapiens (Human), UniProt O60885). As to the kind of experiment: TR-FRET bromodomain binding assay, BRD4 BDII. The following applies: mean Ki, calculated from IC50, probe Kd and probe concentration. As to the method:
as §1, §2, §3, §4, §5

Each structure is given as a SMILES string.

As for `CCNC(=O)c1cc2c(-c3cc(C(C)(O)CO)ccc3Oc3c(C)cccc3C)cn(C)c(=O)c2[nH]1` (stereo not shown) [Example 66, 4-[5-(1,2-dihydroxypropan-2-yl)-2-(2,6-dimethylphenoxy)phenyl]-N-ethyl-6-methyl-7-oxo-6,7-dihydro-1H-pyrrolo[2,3-c]pyridine-2-carboxamide], the inhibition constant Ki in assay [1] was 289 nM; in assay [2], 1.4 nM.
Turning to `CCNC(=O)c1cc2c(-c3cc(C(O)(C4CCCC4)C4CC4)cnc3Oc3c(C)cccc3C)cn(C)c(=O)c2[nH]1` (stereo not shown) [Example 24, 4-{5-[cyclopentyl(cyclopropyl)hydroxymethyl]-2-(2,6-dimethylphenoxy)pyridin-3-yl}-N-ethyl-6-methyl-7-oxo-6,7-dihydro-1H-pyrrolo[2,3-c]pyridine-2-carboxamide], the Ki in assay [1] was 79 nM; in assay [2], 1.7 nM.
Consider `CCNC(=O)c1cc2c(-c3cc(C(C)(C)O)ccc3Oc3c(C)ccnc3C)cn(C)c(=O)c2[nH]1` [Example 74, 4-{2-[(2,4-dimethylpyridin-3-yl)oxy]-5-(2-hydroxypropan-2-yl)phenyl}-N-ethyl-6-methyl-7-oxo-6,7-dihydro-1H-pyrrolo[2,3-c]pyridine-2-carboxamide], for which the values for the Ki in assay [1] and in assay [2] were 551 nM and 3 nM, respectively.
For `CCNC(=O)c1cc2c(-c3cc(C(C)(C)O)ccc3-c3ccc(OC(F)(F)F)cc3)cn(C)c(=O)c2[nH]1` [Example 110, N-ethyl-4-[4-(2-hydroxypropan-2-yl)-4′-(trifluoromethoxy) [1,1′-biphenyl]-2-yl]-6-methyl-7-oxo-6,7-dihydro-1H-pyrrolo[2,3-c]pyridine-2-carboxamide], the results for the Ki in assay [1] and in assay [2] were 224 nM and 2 nM, respectively.
For the compound `Cc1cccc(Cl)c1Oc1ncc(C(C)(C)O)cc1-c1cn(C)c(=O)c2[nH]c(C(=O)NC(C)(C)C(F)(F)F)cc12` [Example 38, 4-[2-(2-chloro-6-methylphenoxy)-5-(2-hydroxypropan-2-yl)pyridin-3-yl]-6-methyl-7-oxo-N-(1,1,1-trifluoro-2-methylpropan-2-yl)-6,7-dihydro-1H-pyrrolo[2,3-c]pyridine-2-carboxamide], the Ki in assay [1] was 241 nM; in assay [2], 5.7 nM.
Taken in the same sequence, the figures for `Cn1cc(-c2cc(C(C)(C)O)ccc2-c2ccc(F)cc2F)c2cc(C(=O)NC(C)(C)C)[nH]c2c1=O` [Example 33, N-tert-butyl-4-[2′,4′-difluoro-4-(2-hydroxypropan-2-yl)[1,1′-biphenyl]-2-yl]-6-methyl-7-oxo-6,7-dihydro-1H-pyrrolo[2,3-c]pyridine-2-carboxamide] were 921 nM and 6.4 nM.
Taken in the same sequence, the figures for `CCNC(=O)c1cc2c(-c3cc(C(C)(C)O)cnc3Oc3c(C)cc(S(C)(=O)=O)cc3C)cn(C)c(=O)c2[nH]1` [Example 93, N-ethyl-4-{5-(2-hydroxypropan-2-yl)-2-[4-(methanesulfonyl)-2,6-dimethylphenoxy]pyridin-3-yl}-6-methyl-7-oxo-6,7-dihydro-1H-pyrrolo[2,3-c]pyridine-2-carboxamide] were 502 nM and 10.9 nM.
The matching figures for `Cc1cc(F)cc(C)c1Oc1ncc(C(C)(C)O)cc1-c1cn(C)c(=O)c2[nH]c(C(=O)NC(C)(C)C)cc12` [Example 44, N-tert-butyl-4-[2-(4-fluoro-2,6-dimethylphenoxy)-5-(2-hydroxypropan-2-yl)pyridin-3-yl]-6-methyl-7-oxo-6,7-dihydro-1H-pyrrolo[2,3-c]pyridine-2-carboxamide]: 323 nM and 7.3 nM.
For `CCNC(=O)c1cc2c(-c3cc(C(C)(O)C(C)C)cnc3Oc3c(C)cccc3C)cn(C)c(=O)c2[nH]1` (stereo not shown) [Example 19, 4-[2-(2,6-dimethylphenoxy)-5-(2-hydroxy-3-methylbutan-2-yl)pyridin-3-yl]-N-ethyl-6-methyl-7-oxo-6,7-dihydro-1H-pyrrolo[2,3-c]pyridine-2-carboxamide], the values for the Ki in assay [1] and in assay [2] were 196 nM and 4 nM, respectively.
Regarding `Cc1cc(F)cc(Cl)c1Oc1ccc(C(C)(C)O)cc1-c1cn(C)c(=O)c2[nH]c(C(=O)NC(C)(C)C(F)(F)F)cc12` [Example 57, 4-[2-(2-chloro-4-fluoro-6-methylphenoxy)-5-(2-hydroxypropan-2-yl)phenyl]-6-methyl-7-oxo-N-(1,1,1-trifluoro-2-methylpropan-2-yl)-6,7-dihydro-1H-pyrrolo[2,3-c]pyridine-2-carboxamide], the Ki was 2890 nM in assay [1] and 17.5 nM in assay [2].
The matching figures for `CCNC(=O)c1cc2c(-c3cc(C(C)(C)O)ccc3Oc3c(C)cc(Br)cc3C)cn(C)c(=O)c2[nH]1` [Example 72, 4-[2-(4-bromo-2,6-dimethylphenoxy)-5-(2-hydroxypropan-2-yl)phenyl]-N-ethyl-6-methyl-7-oxo-6,7-dihydro-1H-pyrrolo[2,3-c]pyridine-2-carboxamide]: 794 nM and 1.3 nM.
For the compound `CCNC(=O)c1cc2c(-c3cc(C(O)(CC)CCc4ccccc4)cnc3Oc3c(C)cccc3C)cn(C)c(=O)c2[nH]1` (stereo not shown) [Example 14, 4-[2-(2,6-dimethylphenoxy)-5-(3-hydroxy-1-phenylpentan-3-yl)pyridin-3-yl]-N-ethyl-6-methyl-7-oxo-6,7-dihydro-1H-pyrrolo[2,3-c]pyridine-2-carboxamide], the inhibition constant Ki in assay [1] is 965 nM; in assay [2], 2.3 nM.
Taken in the same sequence, the figures for `CCNC(=O)c1cc2c(-c3cc(C(O)(CC)CC)cnc3Oc3c(C)cccc3C)cn(C)c(=O)c2[nH]1` [Example 2, 4-[2-(2,6-dimethylphenoxy)-5-(3-hydroxypentan-3-yl)pyridin-3-yl]-N-ethyl-6-methyl-7-oxo-6,7-dihydro-1H-pyrrolo[2,3-c]pyridine-2-carboxamide] were 220 nM and 3 nM.
`Cc1cc(F)cc(C)c1Oc1ccc(C(C)(C)O)cc1-c1cn(C)c(=O)c2[nH]c(C(=O)NC34CC(C3)C4)cc12` [Example 75, N-(bicyclo[1.1.1]pentan-1-yl)-4-[2-(4-fluoro-2,6-dimethylphenoxy)-5-(2-hydroxypropan-2-yl)phenyl]-6-methyl-7-oxo-6,7-dihydro-1H-pyrrolo[2,3-c]pyridine-2-carboxamide]: the figures for the Ki in assay [1] and in assay [2] were 743 nM and 2.9 nM, respectively.
Taken in the same sequence, the figures for `CCNC(=O)c1cc2c(-c3cc(C(C)(C)O)cnc3Oc3c(C)cc(F)cc3C)cn(C)c(=O)c2[nH]1` [Example 43, N-ethyl-4-[2-(4-fluoro-2,6-dimethylphenoxy)-5-(2-hydroxypropan-2-yl)pyridin-3-yl]-6-methyl-7-oxo-6,7-dihydro-1H-pyrrolo[2,3-c]pyridine-2-carboxamide] were 525 nM and 5 nM.
Taken in the same sequence, the figures for `CCNC(=O)c1cc2c(-c3cc(C(C)(C)O)ccc3Oc3c(C)cccc3C(F)(F)F)cn(C)c(=O)c2[nH]1` [Example 28, N-ethyl-4-{5-(2-hydroxypropan-2-yl)-2-[2-methyl-6-(trifluoromethyl)phenoxy]phenyl}-6-methyl-7-oxo-6,7-dihydro-1H-pyrrolo[2,3-c]pyridine-2-carboxamide] were 1180 nM and 5.4 nM.
Taken in the same sequence, the figures for `CCNC(=O)c1cc2c(-c3cc(C(O)(CC)c4ccc(F)cc4)cnc3Oc3c(C)cccc3C)cn(C)c(=O)c2[nH]1` (stereo not shown) [Example 9, 4-{2-(2,6-dimethylphenoxy)-5-[1-(4-fluorophenyl)-1-hydroxypropyl]pyridin-3-yl}-N-ethyl-6-methyl-7-oxo-6,7-dihydro-1H-pyrrolo[2,3-c]pyridine-2-carboxamide] were 601 nM and 3.8 nM.
For the compound `Cc1cc(Cl)cc(C)c1Oc1ncc(C(C)(O)CF)cc1-c1cn(C)c(=O)c2[nH]c(C(=O)NC(C)(C)C)cc12` (stereo not shown) [Example 103, N-tert-butyl-4-[2-(4-chloro-2,6-dimethylphenoxy)-5-(1-fluoro-2-hydroxypropan-2-yl)pyridin-3-yl]-6-methyl-7-oxo-6,7-dihydro-1H-pyrrolo[2,3-c]pyridine-2-carboxamide], the Ki in assay [1] is 450 nM; in assay [2] it was 3.3 nM.
For `CCNC(=O)c1cc2c(-c3cc(C(C)(C)O)cnc3Oc3c(C)ccc(F)c3C)cn(C)c(=O)c2[nH]1` [Example 91, N-ethyl-4-[2-(3-fluoro-2,6-dimethylphenoxy)-5-(2-hydroxypropan-2-yl)pyridin-3-yl]-6-methyl-7-oxo-6,7-dihydro-1H-pyrrolo[2,3-c]pyridine-2-carboxamide], the results for the inhibition constant Ki in assay [1] and in assay [2] were 271 nM and 1.6 nM, respectively.
In the case of `CCNC(=O)c1cc2c(-c3cc(C(C)(O)c4ccccc4)cnc3Oc3c(C)cccc3C)cn(C)c(=O)c2[nH]1` (stereo not shown) [Example 16, 4-[2-(2,6-dimethylphenoxy)-5-(1-hydroxy-1-phenylethyl)pyridin-3-yl]-N-ethyl-6-methyl-7-oxo-6,7-dihydro-1H-pyrrolo[2,3-c]pyridine-2-carboxamide], the figures for the Ki in assay [1] and in assay [2] were 333 nM and 2.3 nM, respectively.
